Experiment [1] deals with primary striatal medium spiny neurons. As to the kind of experiment: cGMP accumulation in SNP-stimulated striatal cultures. It is filed as cell-based, rat. As to conditions: for EC200 (concentration giving a 2-fold increase in cGMP): concentration yielding a 2-fold increase in cGMP, SNP 100 μM for 2 min after 20 min inhibitor incubation. The method, then:
(§1) Striatal cultures were prepared as previously described (Ventimiglia et al., Eur. J. Neurosci. 7: 213-222, 1995). Briefly, striata (caudate nucleus and putamen) were dissected from E17 rats, dissociated to produce a single cell suspension, and plated at a density of 5×10^4 neurons/well in 96-well plates coated with poly-L-ornithine/laminin (Cat. No. 354657, BD Biosciences, Bedford, Mass.). The cells were plated in Neurobasal medium (Cat. No. 21103-049, Gibco BRL, Grand Island, N.Y.) with B27 supplements (Cat. No. 17504-010, Gibco BRL) and human recombinant brain-derived neurotrophic factor (BDNF) (100 ng/ml) (Cat. No. 248-BD, R & D Systems, Minneapolis, Minn.). Striatal medium spiny neurons comprised 50-60% of cells in these cultures, as confirmed by a GABA immunoreactivity protocol as previously described (Ventimiglia et al., 1995, supra). Expression of PDE10A mRNA in these cultures was confirmed by RNase protection assay, as further described below.
(§2) After approximately four days in vitro, the striatal cells were washed with Ca^2+/Mg^2+ free phosphate buffered saline (pH 7.4) and preincubated for an hour in a buffer containing Ca^2+/Mg^2+ free phosphate buffered saline, 30 mM HEPES (pH 7.4), 1 mM CaCl2, 1 mg/ml dextrose, and 5 mM MgCl2. The striatal cells were then exposed to one of the PDE inhibitors and incubated for 20 min. at 37° C. When measuring cGMP, the neurons were stimulated with sodium nitroprusside (SNP) (100 μM) for two min. after the 20 min. incubation with the PDE inhibitor.
(§3) The cells were lysed using a 9:1 combination of SPA direct screening Assay Buffer (0.05 M acetate with 0.01% sodium azide) and Buffer A (133 mg/ml dodecyltrimethylammonium bromide), and the lysates were frozen on dry ice.

Experiment [2] shares this test system. The experiment can be described thus: cAMP accumulation in forskolin-stimulated striatal cultures. The note with it: ratio of EC200 values in striatal cultures. It is filed as cell-based, rat. The method, then:
as §1, §2, §3
Background: Changes in cAMP serve as a functional read-out for many G protein-coupled receptors.

The subject of experiment [3] is PDE10A. As to the kind of experiment: Papaverine inhibition of PDE10A, SPA-based PDE assay. The format is biochemical. The protocol: Phosphodiesterases 7-11 were generated from full length recombinant clones transfected into SF9 cells as previously described (Fisher et al., Biochem. Biophys. Res. Comm. 246: 570-577, 1998; Fisher et al., J. Biol. Chem. 273: 15559-15564, 1998b; Soderling et al., PNAS 96: 7071-7076, 1999; Fawcett et al., PNAS 97: 3702-3707, 2000). The enzymes were purified by FPLC from the soluble fraction of cell lysates as described in Boolell et al., supra.
PDE activity was measured using a SPA-based method as previously described (Fawcett et al., 2000). Assays were conducted using a fixed amount of PDE10A enzyme in the presence of varying inhibitor concentrations. […] The final assay volume was adjusted to 100 μl with assay buffer (20 mM Tris-HCl pH 7.4, 5 mM MgCl2, 1 mg/ml bovine serum albumin).
Reactions were initiated with the addition of enzyme. Samples were incubated for 30-60 min. at 30° C. to give <30% substrate turnover and terminated with 50 μl yttrium silicate SPA beads (Amersham) containing 3 mM of the appropriate unlabelled cyclic nucleotide. Plates were re-sealed and shaken for 20 min.; the beads were then allowed to settle for 30 min. in the dark and then counted on a TopCount plate reader (Packard, Meriden, Conn.). Radioactivity units were converted to percent activity as compared to an uninhibited control (100%). […]

Experiment [4] deals with PDE1. As to conditions: substrate at 1/3 Km.
Experiment [5] relates to PDE7. The note with it: substrate at 1/3 Km.
The subject of experiment [6] is primary striatal medium spiny neurons. As to the kind of experiment: cAMP accumulation in cultured primary striatal medium spiny neurons. As to conditions: Rattus norvegicus, Neuron.
For experiment [7] the test system is unchanged. As to the kind of experiment: cGMP accumulation in cultured primary striatal medium spiny neurons. It is filed as cell-based, rat. The note with it: 100 μM; SNP-stimulated.
Experiment [8] deals with PDE10A. The note with it: cited from earlier work.

One may read the IC50 as the midpoint of a concentration-inhibition curve. As a reminder, the Km is the concentration of substrate that gives half-maximal velocity.

Consider `CC(C)Cn1c(=O)n(C)c(=O)c2[nH]cnc21` [IBMX, 3-isobutyl-1-methylxanthine], for which the EC200 (concentration giving a 2-fold increase in cGMP) in experiment [1] (Rattus norvegicus, Neuron) was 19 µM; in experiment [1], 19.5 µM. In experiment [2], the “cAMP EC200/cGMP EC200” value is reported as 1.5.

Consider `CCCOc1ccccc1-c1nc2nn[nH]c2c(=O)[nH]1` [Zaprinast, zaprinast], for which the EC200 (concentration giving a 2-fold increase in cGMP) in experiment [1] (Rattus norvegicus, Neuron) is above 100 µM; in experiment [1], 98.3 ± 10.3 µM. The “cAMP EC200/cGMP EC200” value in experiment [2] is 1.

In the case of `COc1ccc(Cc2nccc3cc(OC)c(OC)cc23)cc1OC` [Papaverine], the mode of inhibition entry in experiment [3] is “competitive inhibitor”. In addition, the “cGMP levels elevated over cultures stimulated with SNP alone (maximal effect)” value in experiment [1] (100 μM papaverine, SNP 100 μM) is listed as 5 fold. For the same molecule, in experiment [1] (cells unstimulated by SNP or forskolin), the “effect on cGMP levels in unstimulated cells” value is reported as “did not affect”. Further, the IC50 in experiment [4] was found to be 37 µM; in experiment [5] it was 27 µM.

`C=C[C@@]1(C)CC(=O)[C@]2(O)[C@@]3(C)[C@@H](O)CCC(C)(C)[C@@H]3[C@H](O)[C@H](OC(C)=O)[C@@]2(C)O1` [forskolin]: in experiment [6] (read-out: increase over basal cAMP), the fold induction at 1 µM was in the range of 2 to 3. In addition, the activation at 1 µM in experiment [6] (read-out: per cent of the maximal cAMP response) lay in the range of 20 to 25%.

For the molecule `CCCOc1ccccc1-c1nc2nn[nH]c2c(=O)[nH]1` [Zaprinast], the “effect on level of cGMP” value in experiment [7] is “did not quite double the level of cGMP”.

As for `COc1ccc(C2CNC(=O)C2)cc1OC1CCCC1` (stereo not shown) [Rolipram, rolipram], the EC200 (concentration giving a 2-fold increase in cGMP) in experiment [1] (Rattus norvegicus, Neuron) is 29.2 ± 10.3 µM. For the same molecule, the “concentration needed to double the rate of cGMP accumulation relative to cAMP EC200” value in experiment [1] (higher than cAMP EC200 of 2.5 μM) turned out to be 10 fold. Besides, the “cAMP EC200/cGMP EC200” value in experiment [2] is given as 0.09.

On to `Nc1nc2c(ncn2[C@@H]2O[C@@H]3COP(=O)(O)O[C@H]3[C@H]2O)c(=O)[nH]1` [cGMP, cyclic guanine 3′5′-monophosphate], for which, in experiment [8] (Fujishige et al., 1999), the “greater Vmax for cGMP over cAMP” value is recorded as “approximately 5 fold”. The Km in experiment [8] (read-out: Km for cGMP) is 3 µM.

Source of the values: patent US20050026236A1, “PDE 10 cell-based assay and sequences” (Pfizer Inc, priority 2001, published 2005).
